US6136841A, “3-, 8-substituted deuteroporphyrin derivatives, pharmaceutical agents that contain the latter, process for their production and their use in photodynamic therapy and MRI diagnosis” (Schering Aktiengesellschaft, priority 1998, dated 2000)
Read-outs that look alike come from different tables or passages of the source.

Assays:
[1] = system: skin; details: in vivo; cited from earlier work
[2] = system: human colon carcinomas (HT-29 P9); assay type: in vivo, hairless mouse
Method: Phototoxic effect of the compound [mu-16,16'-(7,12-diethyl-3,8,13,17-tetramethylporphyrin-2,18-diyl]bis[3,6,9-tris(carboxymethyl)-11,14-dioxo-3,6,9,12,13-pentaazahexadecanoato]}(8-)]}digadolinato(2-), disodium (Example 1c of WO 94/07894) on a tumor of a hairless mouse
Intracutaneous human colon carcinomas (HT-29 P9) are implanted in the sides of 15 hairless mice that weigh 24-30 g. The tumors are allowed to grow to a size of 5-10 mm. […] On days 1 and 3, i.v. substance is administered to the anesthetized animals. In this case, the animals of group 1 receive 2×130 μl of 0.9% NaCl solution, and they remain in the dark for the entire time. The animals of the second group receive 2×130 μl of a 100 mmol solution of the title compound, which corresponds to a dose of 2×0.5 mmol/kg of body weight. In each case, 30 minutes after administration, the animals are exposed to the light of a xenon lamp (8.5 k Lux, 1 cm glass as a UV filter) for 45 minutes. They spend the rest of the test time in the dark. 2×130 μl of a 100 mmol solution of test substance is also injected into the animals of the third group. The animals remain in the dark, however, for the duration of the test. On the 6th day after the substance is administered, the animals are sacrificed in ether. The tumor is measured, examined macroscopically, removed and tested histologically. […] In group 1, the range is 6.5×7.7 mm^2 up to 8.6×12.0 mm^2. In the very large tumors, which are fed by numerous blood vessels, small lesions of the skin (possibly bite marks) and in some cases deeper bleeding are evident in the center. […] With the animals of group 2, the following observations are made: […]

[3] = system: human colon carcinoma (HT-29 P9); experiment: Phototoxicity on a tumor cell culture, xenon lamp irradiation, live-dead coloration (Example 11); assay type: cell-based; details: irradiated with xenon lamp 8.5 k Lux, UV filter, three days; PE = porphyrin unit; 4320 min; read-out: ED50 (concentration at which about half of the cells are no longer vital)
Method: Determination of the phototoxicity (ED50) of compound Ic of WO 94/07894 (I) and of the title compound of Example 1d) (II) on a tumor cell culture.
In 25 ml culture flasks, a cell culture of human colon carcinoma (HT-29 P9) is reproduced for 3 days at 37° C. The cultures are divided into two groups and mixed with solutions of test substances (50 mmol of porphyrin unit (PE)/l, diluted with fetal calf serum) in increasing amounts (0; 1.5; 5; 8.5; 12; 15.5; 19 μmol of PE/l). The samples are irradiated for three days with a xenon lamp (8.5 k Lux, UV filter). The first group daily received 2 irradiations of 30 minutes each at an interval of 4 hours. For the rest of the time, it remains in the dark in an incubator. The second group is not exposed to light and remains in the dark in the incubator for the entire time. On the fourth day, the cell growth is determined by live-dead coloration and counting with the counting chamber.
The table indicates the concentration at which about half of the cells are no longer vital. (I: Example 1c of DE 4232925; II: Title compound of Example 1d)

Oc1cccc(-c2c3nc(c(-c4cccc(O)c4)c4ccc([nH]4)c(-c4cccc(O)c4)c4nc(c(-c5cccc(O)c5)c5ccc2[nH]5)CC4)C=C3)c1 [m-THPC]
Duration of skin sensitization [1]: ~ 3 weeks

[mu-16,16'-(7,12-diethyl-3,8,13,17-tetramethylporphyrin-2,18-diyl]bis[3,6,9-tris(carboxymethyl)-11,14-dioxo-3,6,9,12,13-pentaazahexadecanoato]}(8-)]}digadolinato(2-), disodium [Example 1c of WO 94/07894]
Histology: diameter of multifocal central necrosis ([2]; group 2, 2×0.5 mmol/kg i.v. + light, three non-eroded tumors): 1.5-2.1 mm
Phototoxic action (overall) ([2]; group 2, substance + light): strong phototoxic action
Tumor growth into the muscle layer ([2]; group 2, substance + light): The tumor did not grow into the muscle layer
Tumor size / tumor growth at end of test ([2]; group 2, substance + light): Comparative measurement of tumor size was no longer possible in view of the extent of the destruction of the tumors. Tumor growth took place, if at all, only in the periphery and in deep tumor layers
Histology: diameter of multifocal central necrosis ([2]; group 3, 2×130 μl of 100 mmol solution, kept in the dark): 0.1-0.8 mm
Tumor growth ([2]; group 3, substance, kept in the dark): The tumors continue to fluorish
IC50 [3]: 6.4 µM

{Mu-[(16,16'-[zinc(II)-7,12-diethyl-3,8,13,17-tetramethylporphyrin-2,18-diyl]-bis[3,6,9-tris(carboxymethyl)-11,14-dioxo-3,6,9,12,13-pentaazahexadecanoato]}(8-)]}-digadolinato(2-), disodium [Example 1d]
IC50 [3]: 5.1 µM
